Usually IC50 stands for the midpoint of a concentration-inhibition curve. The inhibition is the change of the read-out against control, counted positive when it falls.

Activity calls are given as the source filed them. The calls are words filed in the database; no cut-off is given here.

One assay concerns Hep 3B2. Kind of assay: Cytotoxicity against human Hep3B cells assessed as growth inhibition. In kind it is functional, cell-based.
In assay [1] the test system is HepG2. Briefly: Induction of apoptosis in human 3D HepG2 spheroids measured after 24 hrs by propidium iodide staining based immunofluorescence microscopy analysis. In kind it is functional, cell-based.
Assay [2] concerns HepG2. Briefly: Cytotoxicity against human HepG2 cells assessed as reduction in cell viability after 48 to 72 hrs. In kind it is functional, cell-based.
For assay [3], the system named is Huh-7. Briefly: Cytotoxicity against human HuH7 cells assessed as reduction in cell viability measured after 24 hrs by MTT assay. To be noted: Huh-7, 24 h. The format is functional, cell-based. For orientation: Tetrazolium dyes change colour on reduction, which living cells bring about.
In assay [4] the test system is HepG2. Kind of assay: Cytotoxicity against human HepG2 cells assessed as reduction in cell viability measured after 48 hrs by MTT assay. The format is functional, cell-based. The following applies: HepG2, 48 h.
The subject of assay [5] is HepG2. Briefly: Cytotoxicity against human HepG2 cells assessed as reduction in cell viability measured after 24 hrs by MTT assay. In kind it is functional, cell-based. To be noted: HepG2, 24 h.
The subject of assay [6] is HepG2. Kind of assay: Cytotoxicity against human HepG2 cells assessed as reduction in cell viability measured after 72 hrs by MTT assay. To be noted: HepG2, 72 h. In kind it is functional, cell-based.
For assay [7], the system named is Huh-7. Briefly: Cytotoxicity against human HuH7 cells assessed as reduction in cell viability measured after 48 hrs by MTT assay. The format is functional, cell-based. To be noted: Huh-7, 48 h.
The test system of assay [8] is Huh-7. Kind of assay: Cytotoxicity against human HuH7 cells assessed as reduction in cell viability measured after 72 hrs by MTT assay. The following applies: Huh-7, 72 h. The format is functional, cell-based.
Assay [9] has as its target T1, NAD-dependent protein deacetylase sirtuin-1 (Homo sapiens) (UniProt Q96EB6).
T1 sequence (whole entry): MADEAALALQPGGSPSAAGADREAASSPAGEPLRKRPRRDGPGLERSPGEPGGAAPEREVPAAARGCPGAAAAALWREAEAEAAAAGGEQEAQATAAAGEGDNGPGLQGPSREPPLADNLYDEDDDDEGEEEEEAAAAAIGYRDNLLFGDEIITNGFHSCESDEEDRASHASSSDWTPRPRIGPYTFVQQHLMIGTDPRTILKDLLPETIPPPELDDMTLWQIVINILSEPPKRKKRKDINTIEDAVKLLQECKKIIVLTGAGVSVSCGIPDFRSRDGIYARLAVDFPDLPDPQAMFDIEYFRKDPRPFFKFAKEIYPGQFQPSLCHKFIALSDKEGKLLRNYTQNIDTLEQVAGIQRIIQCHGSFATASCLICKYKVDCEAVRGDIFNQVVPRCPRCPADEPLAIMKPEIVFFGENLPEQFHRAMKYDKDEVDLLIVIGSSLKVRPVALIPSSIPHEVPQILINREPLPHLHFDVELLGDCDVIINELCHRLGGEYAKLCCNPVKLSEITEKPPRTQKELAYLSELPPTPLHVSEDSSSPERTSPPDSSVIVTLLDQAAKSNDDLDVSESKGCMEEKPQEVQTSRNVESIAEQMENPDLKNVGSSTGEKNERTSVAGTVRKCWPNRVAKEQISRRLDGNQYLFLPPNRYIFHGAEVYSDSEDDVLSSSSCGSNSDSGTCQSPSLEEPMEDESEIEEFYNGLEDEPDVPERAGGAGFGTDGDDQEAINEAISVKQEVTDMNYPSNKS
Kind of assay: Inhibition of human recombinant SIRT1 at 10 uM using FLUOR DE LYS SIRT1, deacetylase as substrate preincubated for 2 mins followed by substrate addition measured after 1 hr in presence of NAD+ by fluorescence assay relative to control.

The target in assay [10] is T1, NAD-dependent protein deacetylase sirtuin-1 (Homo sapiens). Briefly: Inhibition of human recombinant SIRT1 at 100 uM using FLUOR DE LYS SIRT1, deacetylase as substrate preincubated for 2 mins followed by substrate addition measured after 1 hr in presence of NAD+ by fluorescence assay relative to control.
Assay [11] deals with Exportin-1 (Homo sapiens) (UniProt O14980). Kind of assay: Inhibition of CRM1 in human HuH7 cells assessed as accumulation of RIOK2 in nucleus at 1 and 10 uM measured after 24 hrs by DAPI staining based confocal microscopy analysis. The format is cell-based.
Sequence of Exportin-1 (Homo sapiens) (O14980 whole entry): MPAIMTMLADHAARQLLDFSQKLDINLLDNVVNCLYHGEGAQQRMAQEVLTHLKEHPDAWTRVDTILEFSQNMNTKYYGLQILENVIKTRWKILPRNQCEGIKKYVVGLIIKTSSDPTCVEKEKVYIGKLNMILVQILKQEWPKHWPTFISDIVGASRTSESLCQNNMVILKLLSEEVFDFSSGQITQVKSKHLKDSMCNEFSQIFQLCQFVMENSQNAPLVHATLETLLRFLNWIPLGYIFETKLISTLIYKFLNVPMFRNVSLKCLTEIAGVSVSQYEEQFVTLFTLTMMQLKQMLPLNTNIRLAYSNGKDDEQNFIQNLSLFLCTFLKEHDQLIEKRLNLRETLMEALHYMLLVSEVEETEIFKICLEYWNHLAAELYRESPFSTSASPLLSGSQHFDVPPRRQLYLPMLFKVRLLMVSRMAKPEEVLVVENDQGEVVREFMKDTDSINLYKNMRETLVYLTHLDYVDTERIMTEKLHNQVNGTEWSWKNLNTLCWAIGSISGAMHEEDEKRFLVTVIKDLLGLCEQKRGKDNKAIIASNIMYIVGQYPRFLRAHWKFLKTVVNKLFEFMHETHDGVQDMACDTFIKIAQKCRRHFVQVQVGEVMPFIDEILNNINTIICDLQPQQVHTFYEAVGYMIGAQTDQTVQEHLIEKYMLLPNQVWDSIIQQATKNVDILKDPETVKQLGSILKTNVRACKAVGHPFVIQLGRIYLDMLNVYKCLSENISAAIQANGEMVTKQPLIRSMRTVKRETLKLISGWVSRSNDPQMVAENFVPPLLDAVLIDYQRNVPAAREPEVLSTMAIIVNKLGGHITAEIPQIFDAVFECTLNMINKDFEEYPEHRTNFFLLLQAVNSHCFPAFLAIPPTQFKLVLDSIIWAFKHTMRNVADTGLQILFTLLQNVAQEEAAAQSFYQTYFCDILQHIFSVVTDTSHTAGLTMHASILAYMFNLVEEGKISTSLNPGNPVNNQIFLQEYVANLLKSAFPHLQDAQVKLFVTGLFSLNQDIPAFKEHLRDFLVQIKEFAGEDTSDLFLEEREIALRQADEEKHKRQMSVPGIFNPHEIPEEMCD
Assay [12] has the same target. Briefly: Inhibition of CRM1 in human HuH7 cells assessed as accumulation of RIOK2 in nucleus at 0.1 to 10 uM measured after 6 hrs by DAPI staining based confocal microscopy analysis. The format is cell-based.
Assay [13] relates to HepG2. Briefly: Induction of apoptosis in human 3D HepG2 spheroids at 10 uM measured after 24 hrs by propidium iodide staining based immunofluorescence microscopy analysis. In kind it is functional, cell-based.

`O=C1C=CC[C@H](/C=C/c2ccccc2)O1` [GONIOTHALAMIN]: the IC50 is 5.4 µM with Hep 3B2 and 0.625 to 2.5 µM in the assay on HepG2 [2]. The outcome in the assay with HepG2 [1] was Active.

For `O=C1C=CCC(c2cc3c(c4ccccc24)CCCC3)O1` (racemic), the IC50 in the assay on Huh-7 [3] is 5 µM; in the assay with HepG2 [4] it was 0.625 µM; in the assay on HepG2 [5], 5 µM; with HepG2 [6], 0.1 µM; in the assay on Huh-7 [7] it was 2.5 µM; in the assay on Huh-7 [8] it was 1.25 µM. Moreover, the inhibition in [9] was determined as 17%; in assay [10], 65%. Also, the inhibition entry in assay [11] and in assay [12] was “Active” in each case. Besides, in the assay on HepG2 [13], the result was Active.

The values are drawn from ChEMBL document CHEMBL4359853, “Antiproliferative activity of (R)-4'-methylklavuzon on hepatocellular carcinoma cells and EpCAM+/CD133+ cancer stem cells via SIRT1 and Exportin-1 (CRM1) inhibition” (Eur J Med Chem, 2019).
